From article PMC7007416 (Analytical and Bioanalytical Chemistry, 2019) come the findings set out here.

What is called Papp is the rate of passage across a membrane or cell layer, normalised by area and donor concentration. Low readings indicate poor permeation, high ones ready permeation.

Data set [1] in a line: Permeability in static Transwell system. The following applies: human. As to the method:
(§1) The human colonic adenocarcinoma Caco-2 cell line was obtained from the American Type Culture Collection (ATCC, Manassas, VA, USA), and the human colon adenocarcinoma mucus-secreting HT29-MTX-E12 cell line was obtained from the European Collection of Authenticated Cell Cultures (ECACC, Salisbury, UK). Caco-2 cells were used at passage numbers 29–40, and HT29-MTX-E12 cells were used at passage numbers 52–70 for all experiments. Cells were cultured in DMEM containing 10% FBS, 1% NEAA and 1% penicillin-streptomycin and maintained at 37 °C in a 5% CO2-humidified air atmosphere and subcultured every 2 days to 3 days similar to the study of Abdelkhaliq et al.. For permeability experiments, cells were seeded at a density of 40,000 cells/cm^2 on a polycarbonate Transwell insert (area 0.6 cm^2, 0.4 μm pore size; Millipore) as follows: Caco-2 and HT29-MTX-E12 cells were seeded in a 3:1 ratio on the apical side of the Transwell system and allowed to attach for 24 h. After 24 h, cell culture medium was refreshed every 2–3 days and Transwell systems were used for permeability experiments following 21 days of culturing.
(§2) HEPES is added because the experiments with the flow-through Transwell systems are performed outside of a CO2-controlled incubator, and for the sake of comparability, it is added to the static Transwell systems as well. […]

Data set [2] concerns monolayer of Caco-2/HT29-MTX cells. Put plainly: Permeability in static Transwell system. The following applies: static experiments, ergotamin(in)e 10 μg/mL apical. As to the method:
as §1, §2

Data set [3] has the same test system. Put plainly: Permeability in dynamic flow-through Transwell system, offline analysis. The following applies: dynamic vs static, ergotamin(in)e 10 μg/mL. As to the method:
as §1, §2

Data set [4] shares this test system. As for the experimental part: as §1
The test system of data set [5] is Caco-2 and HT29-MTX-E12 cells (ratio 3:1). As to the method:
With the WST-1 assay, mitochondrial activity of the cell is measured by the conversion of WST-1 into formazan dye by mitochondrial dehydrogenase enzymes. The assay is performed as follows: Caco-2 and HT29-MTX-E12 cells (ratio 3:1) were seeded in Greiner Bio-One (Alphen aan den Rijn, The Netherlands) flat-bottom 96-well plates at a concentration of 1 × 10^5 cells/mL in cell culture medium (100 μL/well). Plates were incubated for 24 h at 37 °C under 5% CO2. […] Then, the exposure medium containing (dilutions of) the compounds of interest was discarded and the cells were washed with pre-warmed HBSS. Subsequently, WST-1 reagent (in cell culture medium without phenol red) was added to the cells (1:10, 100 μL/well). After 1.5 h of incubation at 37 °C, the absorbance of each well was measured at 440 nm using a Bio-Tek (Winooski, VT, USA) Synergy HT Multi-Mode microplate reader.

Data set [6] deals with monolayer of Caco-2/HT29-MTX cells. Put plainly: Lucifer yellow cell barrier integrity test. It is filed as in vitro ADME, human. The following applies: 500 μg/mL apical, 30 min, after permeability experiments (day 21); average. As for the experimental part: Barrier integrity was evaluated similar to the study of Hubatsch et al., and cells were cultured on a Transwell membrane for 21 days and subsequently stained for tight junction protein ZO-1 and the cell nuclei. For this, the cells were washed with PBS and fixed with 4% paraformaldehyde (w/v) for 15 min. Cells were permeabilized with 0.25% Triton X-100 (v/v) and blocked with 1% BSA (w/v). The cells were then incubated with the conjugated antibody ZO-1/TJP1-Alexa Fluor 594 for 45 min (10 μg/mL). Subsequently, DAPI was used to stain the nuclei for 10 min (5 μg/mL). Between incubations, cells were washed with PBS three times. Cells were mounted in a 120-μm spacer (Sigma-Aldrich) on a microscope slide (Thermo Scientific) with ProLong Diamond Antifade Mountant. Slides were then examined using a Zeiss (Jena, Germany) LSM 510 META confocal microscope. Samples were excited with 405-nm and 543-nm lasers, and the pinholes were in the range of 90–94 μm at a magnification of × 40. Cell layer integrity was also evaluated using the transport marker Lucifer yellow. […] Cell culture medium was collected from the apical and basolateral sides at t = 0 and t = 30 min and analysed for fluorescence at 458 nm/530 nm using a Bio-Tek Synergy HT Multi-Mode microplate reader. […]

As for `CN1C[C@H](C(=O)N[C@]2(C)O[C@@]3(O)[C@@H]4CCCN4C(=O)[C@H](Cc4ccccc4)N3C2=O)C=C2c3cccc4[nH]cc(c34)C[C@H]21` [ergotamine], the Papp at 180 min, 10 μg/mL in data set [1] was 8.6 ± 1.2 ×10⁻⁶ cm/s. As for `CN1C[C@@H](C(=O)N[C@]2(C)O[C@@]3(O)[C@@H]4CCCN4C(=O)[C@H](Cc4ccccc4)N3C2=O)C=C2c3cccc4[nH]cc(c34)C[C@H]21` [ergotaminine], the apparent permeability coefficient in data set [2] was 50.2 ± 5.8 × 10^−6 cm/s. For the same molecule, in data set [3], the “permeability, times lower in the dynamic experiments compared to the static experiments” value came to 5 times. Turning to `CN1C2CCCC1CC(NC(=O)c1nn(C)c3ccccc13)C2` (centres unmarked) [granisetron, Granisetron], the “cell-induced product formation on the basolateral side” value in data set [4] was “no cell-induced products were detected”. Further, in data set [4] (human, 3 h), the “translocated across the in vitro intestinal barrier, cumulative % of the apical concentration” value is 13.1%. In data set [5] (human, 24 h), the non-toxic concentration was found to be 10 µg/mL. Consider Lucifer yellow, for which the “Lucifer yellow permeability (percentage of the apical concentration)” value in data set [6] is reported as 0.18% ± 0.06. With Triton X-100, the cell viability in data set [5] (positive control, Triton X-100 0.25% v/v, percentage of negative control) is 0.4% ± 0.3.
